PubChem BioAssay AID210 (DTP/NCI, 2004)
Several values for one entry are separate records, joined by “and”; a condition that tells them apart may be missing. Equal values may be shown once. Inconclusive results and toxic doses are left out.

System: CD2F1 mice, ip Colon 26 adenocarcinoma, median survival T/C
Assay: NCI In Vivo Anticancer Drug Screen. Data for tumor model Colon 26 Adenocarcinoma (intraperitoneal) in CD2F1 (CDF1) mice
Details: endpoint: median survival time, higher = longer survival
Experimental: The antitumor activity of compounds was measured in mice bearing transplantable tumors. Survival or tumor size were measured and the results are expressed as the measurement made in the treated group (T) divided by the measurement made in the vehicle treated control group (C). The tumor model used in this assay is Colon 26 Adenocarcinoma (intraperitoneal) in CD2F1 (CDF1) mice

[1] = dose: 16.0 mg/kg/injection, schedule: Q04DX002 (ip), vehicle: Klucel (hydroxypropylcellulose) (HPC)
[2] = dose: 32.0 mg/kg/injection, schedule: Q04DX002 (ip), vehicle: Klucel (hydroxypropylcellulose) (HPC)
[3] = dose: 12.5 mg/kg/injection, schedule: Q04DX002 (ip), vehicle: saline with Tween-80
[4] = dose: 25.0 mg/kg/injection, schedule: Q04DX002 (ip), vehicle: saline with Tween-80
[5] = dose: 50.0 mg/kg/injection, schedule: Q04DX002 (ip), vehicle: saline with Tween-80

`CC(=O)C1(O)Cc2c(O)c3c(c(O)c2C(OC2CC(N)C(O)C(C)O2)C1)C(=O)c1ccccc1C3=O` (stereo unspecified) was tested, and the T/C (dose: 1.4 mg/kg/injection, schedule: Q07DX002 (iv), vehicle: saline) was 107 % of control, the T/C (dose: 2.3 mg/kg/injection, schedule: Q07DX002 (iv), vehicle: saline) was 120 % of control and the T/C (dose: 324.0 micrograms/kg/injection, schedule: Q04DX003 (ip), vehicle: water) was 157 % of control. The T/C (dose: 900.0 micrograms/kg/injection, schedule: Q04DX003 (ip), vehicle: water) was 92 % of control.
In the case of `Cc1[nH]c(=O)[nH]c(=O)c1N(CCF)CCCl`, the T/C (dose: 8.0 mg/kg/injection, schedule: Q04DX002 (ip), vehicle: Klucel (hydroxypropylcellulose) (HPC)) is reported as 111 % of control and 112 % of control, the T/C [1] is reported as 114 % of control and 121 % of control and the T/C [2] is reported as 122 % of control.
`S=P(N1CC1)(N1CC1)N1CC1` was tested, and the T/C (dose: 1.5 mg/kg/injection, schedule: Q04DX003 (ip), vehicle: saline) was 106 % of control, the T/C (dose: 3.0 mg/kg/injection, schedule: Q04DX003 (ip), vehicle: saline) was 115 % of control and the T/C (dose: 12.0 mg/kg/injection, schedule: Q04DX003 (ip), vehicle: saline) was 153 % of control.
With `Cc1c[nH]c(=O)[nH]c1=O` the T/C [1] was 97 % of control, the T/C [2] was 101 % of control and the T/C (dose: 64.0 mg/kg/injection, schedule: Q04DX002 (ip), vehicle: Klucel (hydroxypropylcellulose) (HPC)) was 101 % of control and 94 % of control and 96 % of control. The T/C (dose: 128.0 mg/kg/injection, schedule: Q04DX002 (ip), vehicle: Klucel (hydroxypropylcellulose) (HPC)) was 101 % of control and 88 % of control and 95 % of control, the T/C (dose: 256.0 mg/kg/injection, schedule: Q04DX002 (ip), vehicle: Klucel (hydroxypropylcellulose) (HPC)) was 110 % of control and 92 % of control and 97 % of control and the T/C (dose: 512.0 mg/kg/injection, schedule: Q04DX002 (ip), vehicle: Klucel (hydroxypropylcellulose) (HPC)) was 91 % of control. The T/C (dose: 1024.0 mg/kg/injection, schedule: Q04DX002 (ip), vehicle: Klucel (hydroxypropylcellulose) (HPC)) was 86 % of control.
In the case of `CC1CCC(NC(=O)N(CCCl)N=O)CC1` (stereo unspecified), the T/C (dose: 5.0 mg/kg/injection, schedule: Q04DX003 (ip), vehicle: Klucel (hydroxypropylcellulose) (HPC)) is reported as 250 % of control, the T/C (dose: 6.7 mg/kg/injection, schedule: Q04DX002 (ip), vehicle: saline with Tween-80) is reported as 106 % of control and the T/C (dose: 10.0 mg/kg/injection, schedule: Q04DX002 (ip), vehicle: saline with Tween-80) is reported as 108 % of control. The T/C (dose: 10.0 mg/kg/injection, schedule: Q04DX003 (ip), vehicle: Klucel (hydroxypropylcellulose) (HPC)) was 305 % of control, the T/C (dose: 12.0 mg/kg/injection, schedule: Q07DX003 (ip), vehicle: saline with Tween-80) was 189 % of control and 219 % of control and the T/C (dose: 15.0 mg/kg/injection, schedule: Q04DX002 (ip), vehicle: saline with Tween-80) was 123 % of control. For the same compound, the T/C (dose: 17.0 mg/kg/injection, schedule: Q07DX003 (ip), vehicle: saline with Tween-80) was 262 % of control and 288 % of control, the T/C (dose: 20.0 mg/kg/injection, schedule: Q01DX001 (ip), vehicle: other) was 217 % of control and the T/C (dose: 20.0 mg/kg/injection, schedule: Q04DX003 (ip), vehicle: Klucel (hydroxypropylcellulose) (HPC)) was 437 % of control. For the same compound, the T/C (dose: 24.0 mg/kg/injection, schedule: Q07DX003 (ip), vehicle: saline with Tween-80) was 288 % of control and 354 % of control, the T/C (dose: 30.0 mg/kg/injection, schedule: Q01DX001 (ip), vehicle: other) was 217 % of control and the T/C (dose: 30.0 mg/kg/injection, schedule: Q01DX005 (ip), vehicle: saline with Tween-80) was 352 % of control. For the same compound, the T/C (dose: 40.0 mg/kg/injection, schedule: Q01DX005 (ip), vehicle: saline with Tween-80) was 329 % of control and the T/C (dose: 55.0 mg/kg/injection, schedule: Q01DX005 (ip), vehicle: saline with Tween-80) was 172 % of control.
In the case of `O=C(O)c1c2c(nc3ccccc13)Cc1ccccc1-2`, the T/C (dose: 12.5 mg/kg/injection, schedule: Q04DX002 (ip), vehicle: water) is reported as 97 % of control, the T/C (dose: 25.0 mg/kg/injection, schedule: Q04DX002 (ip), vehicle: water) is reported as 113 % of control and the T/C (dose: 100.0 mg/kg/injection, schedule: Q04DX002 (ip), vehicle: water) is reported as 105 % of control.
`Nc1n[nH]c(N)n1` was tested, and the T/C (dose: 40.0 mg/kg/injection, schedule: Q04DX003 (ip), vehicle: saline) was 105 % of control, the T/C (dose: 80.0 mg/kg/injection, schedule: Q04DX003 (ip), vehicle: saline) was 96 % of control and the T/C (dose: 100.0 mg/kg/injection, schedule: Q04DX003 (ip), vehicle: suspension in saline) was 95 % of control. For the same compound, the T/C (dose: 160.0 mg/kg/injection, schedule: Q04DX003 (ip), vehicle: saline) was 112 % of control, the T/C (dose: 200.0 mg/kg/injection, schedule: Q04DX003 (ip), vehicle: suspension in saline) was 104 % of control and the T/C (dose: 320.0 mg/kg/injection, schedule: Q04DX003 (ip), vehicle: saline) was 106 % of control. For the same compound, the T/C (dose: 400.0 mg/kg/injection, schedule: Q04DX003 (ip), vehicle: suspension in saline) was 105 % of control, the T/C (dose: 800.0 mg/kg/injection, schedule: Q04DX003 (ip), vehicle: suspension in saline) was 108 % of control and the T/C (dose: 1600.0 mg/kg/injection, schedule: Q04DX003 (ip), vehicle: suspension in saline) was 100 % of control.
For `N=[N+]=CC(=O)OCC(N)C(=O)O` (stereo unspecified), the T/C (dose: 3.12 mg/kg/injection, schedule: Q04DX003 (ip), vehicle: water) was 113 % of control, the T/C (dose: 6.25 mg/kg/injection, schedule: Q04DX003 (ip), vehicle: water) was 113 % of control and the T/C (dose: 12.5 mg/kg/injection, schedule: Q04DX003 (ip), vehicle: water) was 105 % of control. For the same compound, the T/C (dose: 25.0 mg/kg/injection, schedule: Q04DX003 (ip), vehicle: water) was 111 % of control and the T/C (dose: 50.0 mg/kg/injection, schedule: Q04DX003 (ip), vehicle: water) was 95 % of control.
For `Cc1cc(=O)n2c3c(c4c(cc13)c(CN(C)C)cc(=O)n4C)OC2`, the T/C (dose: 6.25 mg/kg/injection, schedule: Q04DX002 (ip), vehicle: saline with Tween-80) was 99 % of control, the T/C [3] was 99 % of control and the T/C [4] was 107 % of control. For the same compound, the T/C [5] was 102 % of control.
For `CN(C)C=O`, the T/C (dose: 100.0 mg/kg/injection, schedule: Q04DX002 (ip), vehicle: saline) was 93 % of control, the T/C (dose: 400.0 mg/kg/injection, schedule: Q04DX002 (ip), vehicle: saline) was 90 % of control and the T/C (dose: 800.0 mg/kg/injection, schedule: Q04DX002 (ip), vehicle: saline) was 168 % of control. For the same compound, the T/C (dose: 1600.0 mg/kg/injection, schedule: Q04DX002 (ip), vehicle: saline) was 93 % of control.
For `C#C[C@]1(O)CC[C@H]2[C@@H]3CCc4cc(O)ccc4[C@H]3CC[C@@]21C`, the T/C (dose: 25.0 mg/kg/injection, schedule: Q04DX003 (ip), vehicle: Klucel (hydroxypropylcellulose) (HPC)) was 103 % of control, the T/C (dose: 50.0 mg/kg/injection, schedule: Q04DX003 (ip), vehicle: Klucel (hydroxypropylcellulose) (HPC)) was 100 % of control and the T/C (dose: 100.0 mg/kg/injection, schedule: Q04DX003 (ip), vehicle: Klucel (hydroxypropylcellulose) (HPC)) was 96 % of control. For the same compound, the T/C (dose: 200.0 mg/kg/injection, schedule: Q04DX003 (ip), vehicle: Klucel (hydroxypropylcellulose) (HPC)) was 90 % of control and the T/C (dose: 400.0 mg/kg/injection, schedule: Q04DX003 (ip), vehicle: Klucel (hydroxypropylcellulose) (HPC)) was 86 % of control.
For `CCOC(=O)c1ccc(NC(=O)Nc2nccs2)cc1`, the T/C [3] was 97 % of control, the T/C [4] was 105 % of control and the T/C [5] was 95 % of control. The T/C (dose: 100.0 mg/kg/injection, schedule: Q04DX002 (ip), vehicle: saline with Tween-80) was 106 % of control, the T/C (dose: 200.0 mg/kg/injection, schedule: Q04DX002 (ip), vehicle: saline with Tween-80) was 102 % of control and the T/C (dose: 400.0 mg/kg/injection, schedule: Q04DX002 (ip), vehicle: saline with Tween-80) was 110 % of control.
With `COc1ccc2c(c1)CCC(c1ccccc1)=C2c1ccc(OCCN2CCCC2)cc1` the T/C (dose: 6.25 mg/kg/injection, schedule: Q01DX009 (ip), vehicle: saline) was 115 % of control, the T/C (dose: 12.5 mg/kg/injection, schedule: Q01DX009 (ip), vehicle: saline) was 111 % of control and the T/C (dose: 25.0 mg/kg/injection, schedule: Q01DX009 (ip), vehicle: saline) was 112 % of control.
In the case of `COc1cccc2c1C(=O)c1c(O)c3c(c(O)c1C2=O)C[C@@](O)(C(=O)COC(=O)c1cccnc1)C[C@@H]3OC1CC(N)C(O)C(C)O1` (stereo partly specified), the T/C (dose: 5.5 mg/kg/injection, schedule: Q07DX003 (iv), vehicle: other) is reported as 113 % of control, the T/C (dose: 8.5 mg/kg/injection, schedule: Q07DX003 (iv), vehicle: other) is reported as 108 % of control and the T/C (dose: 13.1 mg/kg/injection, schedule: Q07DX003 (iv), vehicle: other) is reported as 114 % of control. For the same compound, the T/C (dose: 17.0 mg/kg/injection, schedule: Q07DX002 (iv), vehicle: alkali diluted with saline) was 99 % of control, the T/C (dose: 20.3 mg/kg/injection, schedule: Q07DX003 (iv), vehicle: other) was 115 % of control and the T/C (dose: 26.0 mg/kg/injection, schedule: Q07DX002 (iv), vehicle: alkali diluted with saline) was 94 % of control.
